These results are taken from patent EP0531958A1, “6-Aminoquinolones, their synthesis and their use as antibacterial agents” (MEDIOLANUM FARMACEUTICI S.P.A., priority 1991, dated 1993).

Type in all cases: cell-based
The test system of test [1] is Enterobacter cloacae OMNF 1174. In words: MIC test, agar dilution with Steers multiwell inoculator. The settings on record: OMNF1174, TSA dishes, 24 h at 35°C, read-out: Minimum Inhibiting Concentration. In outline:
(§1)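 Compounds are dissolved in DMSO plus 1N NaOH at 2560 µg/ml, serially halved and mixed into molten TSA, giving 64 µg/ml per dish at the top. Dried plates are inoculated with 1-2.10⁷ cfu/ml bacteria and read after 24 h at 35°C.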
On the technique in general: Agar dilution tests growth on a series of plates holding different concentrations.

In test [2] the test system is Staphylococcus aureus ATCC 6538. Described as above. The settings on record: ATCC6538, TSA dishes, 24 h at 35°C, read-out: Minimum Inhibiting Concentration. In outline:
as §1

In a further test the test system is Shighella enteritidis. The description is as above. The settings on record: TSA dishes, 24 h at 35°C, read-out: Minimum Inhibiting Concentration. Put shortly:
as §1

The next test deals with Escherichia coli 120. The description is as above. The settings on record: TSA dishes, 24 h at 35°C, read-out: Minimum Inhibiting Concentration. In outline: as §1
For test [3], the system named is Enterobacter cloacae OMNF 1153. The test is described as above. The settings on record: OMNF1153, TSA dishes, 24 h at 35°C, read-out: Minimum Inhibiting Concentration. Put shortly:
as §1

The test system of test [4] is Acinebacter calcoloaceticus OSMPV 1130. The test is described as above. The settings on record: TSA dishes, 24 h at 35°C, read-out: Minimum Inhibiting Concentration. Put shortly:
as §1

Test [5] relates to Pseudomonas aeruginosa ATCC 9027. The test is described as above. The settings on record: ATCC9027, TSA dishes, 24 h at 35°C, read-out: Minimum Inhibiting Concentration. In outline: as §1
Test [6] has as its system Staphylococcus epidermidis CPHL A2. The test is described as above. The settings on record: CPHLA2, TSA dishes, 24 h at 35°C, read-out: Minimum Inhibiting Concentration. Put shortly: as §1
Test [7] has as its system Pseudomonas aeruginosa CNUR 4. The test is described as above. The settings on record: CNUR4, TSA dishes, 24 h at 35°C, read-out: Minimum Inhibiting Concentration. Put shortly:
as §1

Test [8] concerns Klebsiella pneumoniae ATCC 10031. The test is described as above. The settings on record: ATCC10031, TSA dishes, 24 h at 35°C, read-out: Minimum Inhibiting Concentration. Put shortly:
as §1

Test [9] concerns Escherichia coli ATCC 8739. The description is as above. The settings on record: ATCC8739, TSA dishes, 24 h at 35°C, read-out: Minimum Inhibiting Concentration. Put shortly: as §1
The subject of the next test is Escherichia coli ISF 432. The description is as above. The settings on record: ISF432, TSA dishes, 24 h at 35°C, read-out: Minimum Inhibiting Concentration. In outline:
as §1

Test [10] deals with Staphylococcus epidermidis HCF Berset C. Described as above. The settings on record: TSA dishes, 24 h at 35°C, read-out: Minimum Inhibiting Concentration. In outline: as §1
The subject of test [11] is Staphylococcus aureus MPR 5. The test is described as above. The settings on record: MPR5, TSA dishes, 24 h at 35°C, read-out: Minimum Inhibiting Concentration. Put shortly:
as §1

Another test relates to Proteus vulgaris CNUR 6. The test is described as above. The settings on record: CNUR6, TSA dishes, 24 h at 35°C, read-out: Minimum Inhibiting Concentration. In outline:
as §1

Test [12] deals with Streptococcus facealis LEP Br. The test is described as above. The settings on record: TSA dishes, 24 h at 35°C, read-out: Minimum Inhibiting Concentration. Put shortly:
as §1

The subject of test [13] is Providencia stuardii CNUR 5. Described as above. The settings on record: CNUR5, TSA dishes, 24 h at 35°C, read-out: Minimum Inhibiting Concentration. In outline:
as §1

The test system of the next test is Escherichia coli CNUR 8. Described as above. The settings on record: CNUR8, TSA dishes, 24 h at 35°C, read-out: Minimum Inhibiting Concentration. In outline:
as §1

For test [14], the system named is Pseudomonas aeruginosa CNUR 2. The test is described as above. The settings on record: CNUR2, TSA dishes, 24 h at 35°C, read-out: Minimum Inhibiting Concentration. Put shortly: as §1
The subject of another test is Escherichia coli CNUR 1. The description is as above. The settings on record: CNUR1, TSA dishes, 24 h at 35°C, read-out: Minimum Inhibiting Concentration. In outline: as §1
The next test relates to Gram +. The experiment in a line: MIC test, average over the 5 gram-positive test germs. The settings on record: 24 h. Put shortly: as §1
The test system of another test is Gram -. In words: MIC test, average over the 15 gram-negative test germs. The settings on record: 24 h. Put shortly: as §1
The mark [15] stands for this setting: geometrical average of the MIC over the 5 Gram + strains, read-out: Geometrical Average.
The mark [16] stands for this setting: geometrical average of the MIC over the 15 Gram - strains, read-out: Geometrical Average.
[17] abbreviates: mean log of the MIC over the 15 Gram - strains, read-out: Log (converted).

≈ marks a conversion by molar mass, not a printed value. Read-outs that look alike come from different tables or passages of the source.

In the case of `Nc1cc2c(=O)c(C(=O)O)cn(C3CC3)c2cc1N1CCNCC1` [Compound 9], the MIC in test [1] was 0.25 µg/mL (≈ 0.761 µM); in test [2], 64 µg/mL (≈ 195 µM); in the test on Shighella enteritidis, 0.5 µg/mL (≈ 1.52 µM); in the test on Escherichia coli 120, 0.25 µg/mL (≈ 0.761 µM); in test [3], 0.5 µg/mL (≈ 1.52 µM); in test [4], 16 µg/mL (≈ 48.7 µM). In addition, the MIC came out at 2 µg/mL (≈ 6.09 µM) in test [5]; 16 µg/mL (≈ 48.7 µM) in test [6]; 64 µg/mL (≈ 195 µM) in test [7]; 0.25 µg/mL (≈ 0.761 µM) in test [8]; 0.25 µg/mL (≈ 0.761 µM) in test [9]; 0.03 µg/mL (≈ 0.0914 µM) in the test on Escherichia coli ISF 432. For the same compound, the MIC is 16 µg/mL (≈ 48.7 µM) in test [10]; 64 µg/mL (≈ 195 µM) in test [11]; 32 µg/mL (≈ 97.5 µM) in the test on Proteus vulgaris CNUR 6; 128 µg/mL (≈ 390 µM) in [12]; 32 µg/mL (≈ 97.5 µM) in test [13]; 0.25 µg/mL (≈ 0.761 µM) in the test with Escherichia coli CNUR 8. Further, the MIC in test [14] is 8 µg/mL (≈ 24.4 µM); with Escherichia coli CNUR 1, 0.25 µg/mL (≈ 0.761 µM); in the test on Gram + (setting [15]), 42.2 µg/mL; in the test with Gram + (read-out: Log (converted)), 42.2 µg/mL (≈ 128 µM); in the test on Gram - (setting [16]), 1.26 µg/mL (≈ 3.82 µM); in the test on Gram - (setting [17]) it was 1.26 µg/mL (≈ 3.83 µM).

In the case of `CC(C)(C)n1cc(C(=O)O)c(=O)c2cc(N)c(N3CCc4ccccc4C3)cc21` [Compound 47, 6-amino-1-terbutyl-7-[2-(1,2,3,4-tetrahydroisoquinolinyl)]-1,4-dihydro-4-oxo-quinoline carboxylic acid], the MIC in [1] was 8 µg/mL (≈ 20.4 µM); in test [2] it was 0.25 µg/mL (≈ 0.639 µM); in the test on Shighella enteritidis it was 8 µg/mL (≈ 20.4 µM); with Escherichia coli 120, 2 µg/mL (≈ 5.11 µM); in test [3], 16 µg/mL (≈ 40.9 µM); in [4] it was 2 µg/mL (≈ 5.11 µM). Moreover, the MIC in [5] was 32 µg/mL (≈ 81.7 µM); in test [6], 0.5 µg/mL (≈ 1.28 µM); in [7] it was 128 µg/mL (≈ 327 µM); in test [8], 0.12 µg/mL (≈ 0.307 µM); in [9] it was 0.12 µg/mL (≈ 0.307 µM); with Escherichia coli ISF 432, 0.12 µg/mL (≈ 0.307 µM). Further, the MIC in [10] was 1 µg/mL (≈ 2.55 µM); in test [11], 0.5 µg/mL (≈ 1.28 µM); in the test on Proteus vulgaris CNUR 6, 128 µg/mL (≈ 327 µM); in [12], 8 µg/mL (≈ 20.4 µM); in test [13], 4 µg/mL (≈ 10.2 µM); in the test on Escherichia coli CNUR 8, 2 µg/mL (≈ 5.11 µM). Further, the MIC in [14] was 64 µg/mL (≈ 163 µM); in the test on Escherichia coli CNUR 1, 8 µg/mL (≈ 20.4 µM); with Gram + (setting [15]) it was 0.871 µg/mL; in the test on Gram + (read-out: Log (converted)), 0.871 µg/mL (≈ 2.22 µM); in the test on Gram - (setting [16]), 4.77 µg/mL (≈ 12.2 µM); with Gram - (setting [17]), 4.78 µg/mL (≈ 12.2 µM).

Consider `Nc1cc2c(=O)c(C(=O)O)cn(C3CC3)c2c(F)c1N1CCSCC1` [Compound 23], for which the MIC in [1] was 1 µg/mL (≈ 2.75 µM); in test [2], 0.5 µg/mL (≈ 1.38 µM); in the test on Shighella enteritidis, 4 µg/mL (≈ 11 µM); with Escherichia coli 120, 0.25 µg/mL (≈ 0.688 µM); in test [3] it was 1 µg/mL (≈ 2.75 µM); in test [4], 1 µg/mL (≈ 2.75 µM). The MIC is 4 µg/mL (≈ 11 µM) in [5]; 0.5 µg/mL (≈ 1.38 µM) in [6]; 64 µg/mL (≈ 176 µM) in test [7]; 0.03 µg/mL (≈ 0.0826 µM) in [8]; 0.12 µg/mL (≈ 0.33 µM) in [9]; 0.06 µg/mL (≈ 0.165 µM) with Escherichia coli ISF 432. Further, the MIC in test [10] is 1 µg/mL (≈ 2.75 µM); in [11] it was 0.25 µg/mL (≈ 0.688 µM); with Proteus vulgaris CNUR 6 it was 64 µg/mL (≈ 176 µM); in [12] it was 4 µg/mL (≈ 11 µM); in [13], 0.5 µg/mL (≈ 1.38 µM); with Escherichia coli CNUR 8, 0.25 µg/mL (≈ 0.688 µM). In addition, the MIC in test [14] was 8 µg/mL (≈ 22 µM); in the test with Escherichia coli CNUR 1, 0.5 µg/mL (≈ 1.38 µM); in the test on Gram + (setting [15]), 0.758 µg/mL; in the test on Gram + (read-out: Log (converted)), 0.759 µg/mL (≈ 2.09 µM); with Gram - (setting [16]) it was 1.04 µg/mL (≈ 2.85 µM); in the test on Gram - (setting [17]), 1.04 µg/mL (≈ 2.85 µM).

In the case of `CN1CCN(c2c(N)cc3c(=O)c(C(=O)O)cn(C4CC4)c3c2F)CC1` [Compound 22], the MIC in test [1] was 0.25 µg/mL (≈ 0.694 µM); in test [2], 4 µg/mL (≈ 11.1 µM); in the test with Shighella enteritidis it was 0.25 µg/mL (≈ 0.694 µM); with Escherichia coli 120, 0.06 µg/mL (≈ 0.166 µM); in [3] it was 0.25 µg/mL (≈ 0.694 µM); in test [4], 8 µg/mL (≈ 22.2 µM). The MIC worked out at 2 µg/mL (≈ 5.55 µM) in test [5]; 4 µg/mL (≈ 11.1 µM) in [6]; 32 µg/mL (≈ 88.8 µM) in [7]; 0.06 µg/mL (≈ 0.166 µM) in test [8]; 1 µg/mL (≈ 2.77 µM) in test [9]; 0.06 µg/mL (≈ 0.166 µM) in the test on Escherichia coli ISF 432. The MIC is 8 µg/mL (≈ 22.2 µM) in test [10]; 4 µg/mL (≈ 11.1 µM) in test [11]; 32 µg/mL (≈ 88.8 µM) with Proteus vulgaris CNUR 6; 64 µg/mL (≈ 178 µM) in test [12]; 4 µg/mL (≈ 11.1 µM) in test [13]; 0.12 µg/mL (≈ 0.333 µM) in the test with Escherichia coli CNUR 8. For the same compound, the MIC in [14] was 8 µg/mL (≈ 22.2 µM); in the test on Escherichia coli CNUR 1, 0.12 µg/mL (≈ 0.333 µM); in the test on Gram + (read-out: Log (converted)), 8 µg/mL (≈ 22.2 µM); in the test with Gram - (setting [16]), 0.783 µg/mL (≈ 2.17 µM); in the test on Gram - (setting [17]), 0.783 µg/mL (≈ 2.17 µM).
